In a compilation of properties of binary mixtures (doi:10.1021/acs.jced.1c00023):

Assay: xn = mol fraction of the nth substance listed
Details: 101.3 kPa

Oc1cccc(O)c1O + CCCCCCCCCCCC[N+](C)(C)C.[Br-]
x2 = 0.333
Details | electrical conductivity [S/m] | speed of sound [m/s] | viscosity [mPa·s]
293.15 K | 0.0047 | 1614.6 | 7500
298.15 K | 0.0082 | 1592.1 | 5650
303.15 K | 0.0139 | 1572.5 | 3900
308.15 K | 0.0234 | 1554.9 | 2300
313.15 K | 0.0364 | 1538.8 | 1500
318.15 K | 0.0539 | 1523.4 | 1000
323.15 K | 0.0773 | 1508.7 | 750
328.15 K | 0.105 | 1494.3 | 550

Oc1cccc(O)c1O + CCC[N+](CCC)(CCC)CCC.[Br-]
x2 = 0.5
Details | electrical conductivity [S/m] | speed of sound [m/s] | viscosity [mPa·s]
298.15 K | 0.0031 | 1855.2 | 25000
318.15 K | 0.0259 | 1704.1 | 4800
323.15 K | 0.04 | 1674.1 | 3500
328.15 K | 0.0703 | 1652.9 | 2550
